“Also recorded” adds a separate entry of the source.
What was measured:
Type in all cases: cell-based
[1] = system: KB human epidermoid carcinoma cells; test: Cell proliferation assay (cell counts), KB; conditions: 72 h
Procedure: (§1) Tolytoxin and the other new scytophycin compounds are potent anticancer and antifungal agents. The cytotoxicity of tolytoxin and other new scytophycin compounds was determined using a cell proliferation assay, which tested the effect of the compounds on increases in cell numbers.
(§2) Cell lines were grown in plastic dishes (Falcon) in Eagle's basal medium supplemented with 5% newborn calf serum (KB), Fisher's medium supplemented with 10% horse serum (L1210), Dulbecco's modified Eagle's medium supplemented with 5% heat-inactivated fetal calf serum (LoVo), minimal essential medium supplemented with 2% heat-inactivated chicken serum (HEp-2), RPMI-1640 supplemented with 10% heat-inactivated fetal calf serum (T-47D, COLO-201) or 20% heat-inactivated fetal calf serum (HL-60, KATO-III), or McCoy's 5A supplemented with 10% heat-inactivated fetal calf serum (HBL-100). All cell culture media were supplemented with 50 μg/ml gentamycin sulfate. The cultures were incubated at 37° C. in a humidified atmosphere containing 5% carbon dioxide.
(§3) Cultures were exposed to graded concentrations of tolytoxin and reincubated for 72 hours in the presence of tolytoxin. Three dishes were used for each treatment. Cell numbers were determined by hemacytometer counts. The IC50 for each cell line was determined by plotting the logarithm of the tolytoxin concentration versus growth (cell number as a percentage of the control) of the treated cells.
(§4) The other new scytophycin compounds are also potent cytotoxins. For example, the IC50 of the scytophycins against KB human epidermoid carcinoma, LoVo human adenocarcinoma, and L1210 murine leukemia were determined using the cell proliferation assay described for tolytoxin.

[2] = system: KATO-III human gastric carcinoma cells; test: Cell proliferation assay (cell counts), KATO-III; conditions: Table 5, 72 hours
Procedure: as §1, §2
as §3, with “Three dishes were used for each treatment.” left out

[3] = system: Murine leukemia (L1210) cells; test: Polynucleation / DNA content by flow cytometry; conditions: 10 nM
Procedure: The following procedure employs new scytophycins to produce polynucleated mammalian cells. Murine leukemia (L1210) cells at a density of 1×10^5 cells/mL were treated with tolytoxin for periods ranging from 4 to 24 hours. Tolytoxin or the appropriate vehicle as a control was added in a volume of not more than 4.2 μL per 10 mL of cell suspension. The cell suspension was incubated at 37° C. in a humidified atmosphere of 95% air, 5% carbon dioxide. At the conclusion of the incubation, the cultures were chilled on ice and centrifuged at 200×g (gravity) for 10 minutes. The pelleted cells were fixed in 70% ethanol: 30% water for 1 hour. Aliquots of the fixed cell suspensions were washed twice with 0.01M phosphate buffered saline, pH 7.2-7.4. The cells were resuspended at approximately 1×10^6 /mL in modified Krishan's reagent (Krishan, 1975) containing 0.005% propidium iodide, ribonuclease A at 50 units/mL, 0.1% sodium citrate, and 0.3% Nonidet P-40. Following a 30 minute incubation at 4° C. the cell suspensions were passed 4 times through a 26-gauge needle before analysis on a Coulter Epics C flow cytometer, equipped with an Innova 90 argon laser tuned at 488 nm and set at 200 milliwatts. The fluorescence of 10,000 cells was used to generate the DNA histograms.

[4] = system: HL-60 human promyelocytic leukemia cells; test: Cell proliferation assay (cell counts), HL-60; conditions: Table 5, 72 hours
Procedure: as §1, §2
as §3, with “Three dishes were used for each treatment.” left out

[5] = system: L1210 murine leukemia cells; test: Cell proliferation assay (cell counts), L1210; conditions: Mus musculus, L1210, 72 h
Procedure: as §1, §2, §3, §4

[6] = system: Human epidermoid carcinoma (KB) cells; test: Cell shape and nuclear protrusion by microscopy
Procedure: In the following procedure new scytophycins were employed to cause nuclear protrusion in mammalian cells. Human epidermoid carcinoma (KB) cells were plated on plastic tissue-culture dishes in Dulbecco's modified Eagle's medium at 1×10^5 cells per 60 mm dish. The cell cultures were incubated overnight at 37° C. in a humidified atmosphere of 95% air and 5% carbon dioxide to allow the cells to settle and become attached. Following the incubation, tolytoxin or the appropriate vehicle control was added in a volume of not more than 35 μL per 5 mL of culture medium. After an additional incubation period ranging from 1 to 4 hours, the culture medium was removed and the cell layer washed twice with phosphate-buffered saline (PBS), pH 7.2. The washed cell layer was stained for 15 minutes with 0.01% acridine orange in PBS. Following staining, the cell suspension was washed for 15 minutes with two changes of PBS to remove unbound stain and photographed on a Zeiss IM-35 photomicroscope equipped with brightfield and epifluorescence optics.

[7] = system: HBL-100 human breast cells; test: Cell proliferation assay (cell counts), HBL-100; conditions: Table 5, 72 hours
Procedure: as §1, §2
as §3, with “Three dishes were used for each treatment.” left out

SMILES: COC1CC2C=CCC(CC(OC)C3(CO3)C(OC)CC(OC)C(C)C(C(C)C(O)C(C)CCC(=O)C(C)C(OC)C(C)/C=C/N(C)C=O)OC(=O)/C=C/C(C)=C/C1O)O2 (stereo not shown) [Tolytoxin, 6-hydroxy-7-O-methylscytophycin B]
- IC50 [1]: 5.3 nM
- IC50 [2]: 0.78 nM
- multinucleated cells observed by microscopy ([3]; 4 to 24 hours): increasing numbers of multinucleated cells
- proportion of cells in the G2 M phase ([3]; 4 to 24 hours): gradual increase
- fraction of the cells with DNA contents greater than 4C ([3]; by 16 hours): approximately 1/3
- IC50 [4]: 4.8 nM
- IC50 [5]: 3.9 nM
- cell shape and surface appearance ([6]; 4 nM, 1 hour): fibroblastoid cellular shape and the appearance of blebs or zeioses on the cell surfaces; also recorded: the cells have lost their normal extended fibroblastoid shape, and the appearance of blebs or zeioses on the cell surface is apparent
- migration of cell nucleus ([6]; 8nM, 4 hours): the cell nuclei have migrated out of their respective cell bodies; also recorded: The cell nucleus has migrated outside the body of the cell and now occupies one of the zeiotic processes
- IC50 [7]: 2.4 nM
